Assay results taken from the supplement of paper PMC11451515.

System: SEM cells
Test: cell viability relative to DMSO control; higher = less cytotoxic
Conditions: 48 h
Procedure, shortened: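 Library compounds in DMSO were pin-dosed into 1536-well plates (5 μl) holding NOMO1 or SEM (500 cells/well) or P12-Ichikawa (1000 cells/well) leukemia cells, across an 11-point threefold series of 47 μM to 0.79 nM. Each cell line had been adapted for at least four passages in each medium. CellTiter-Glo One luminescence was read after 48 h at 37°C. Viability is the per-plate percentage relative to DMSO wells, with cell-free wells as background.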

[1] = HPLM + 10% dialyzed FBS, 0.000781 µM
[2] = HPLM + 10% dialyzed FBS, 0.00234 µM
[3] = HPLM + 10% dialyzed FBS, 0.00702 µM
[4] = HPLM + 10% dialyzed FBS, 0.0211 µM
[5] = HPLM + 10% dialyzed FBS, 0.0632 µM
[6] = HPLM + 10% dialyzed FBS, 0.19 µM
[7] = HPLM + 10% dialyzed FBS, 0.569 µM
[8] = HPLM + 10% dialyzed FBS, 1.71 µM
[9] = HPLM + 10% dialyzed FBS, 5.12 µM
[10] = HPLM + 10% dialyzed FBS, 15.4 µM
[11] = HPLM + 10% dialyzed FBS, 46.1 µM
[12] = RPMI 5 mM glucose + 10% dialyzed FBS, 0.000781 µM
[13] = RPMI 5 mM glucose + 10% dialyzed FBS, 0.00234 µM
[14] = RPMI 5 mM glucose + 10% dialyzed FBS, 0.00702 µM
[15] = RPMI 5 mM glucose + 10% dialyzed FBS, 0.0211 µM
[16] = RPMI 5 mM glucose + 10% dialyzed FBS, 0.0632 µM
[17] = RPMI 5 mM glucose + 10% dialyzed FBS, 0.19 µM
[18] = RPMI 5 mM glucose + 10% dialyzed FBS, 0.569 µM
[19] = RPMI 5 mM glucose + 10% dialyzed FBS, 1.71 µM
[20] = RPMI 5 mM glucose + 10% dialyzed FBS, 5.12 µM
[21] = RPMI 5 mM glucose + 10% dialyzed FBS, 15.4 µM
[22] = RPMI 5 mM glucose + 10% dialyzed FBS, 46.1 µM
[23] = RPMI 5 mM glucose + 10% FBS, 0.000781 µM
[24] = RPMI 5 mM glucose + 10% FBS, 0.00234 µM
[25] = RPMI 5 mM glucose + 10% FBS, 0.00702 µM
[26] = RPMI 5 mM glucose + 10% FBS, 0.0211 µM
[27] = RPMI 5 mM glucose + 10% FBS, 0.0632 µM
[28] = RPMI 5 mM glucose + 10% FBS, 0.19 µM
[29] = RPMI 5 mM glucose + 10% FBS, 0.569 µM
[30] = RPMI 5 mM glucose + 10% FBS, 1.71 µM
[31] = RPMI 5 mM glucose + 10% FBS, 5.12 µM
[32] = RPMI 5 mM glucose + 10% FBS, 15.4 µM
[33] = RPMI 5 mM glucose + 10% FBS, 46.1 µM

Row | SMILES | cell viability [1] [%] | cell viability [2] [%] | cell viability [3] [%] | cell viability [4] [%] | cell viability [5] [%] | cell viability [6] [%] | cell viability [7] [%] | cell viability [8] [%] | cell viability [9] [%] | cell viability [10] [%] | cell viability [11] [%] | cell viability [12] [%] | cell viability [13] [%] | cell viability [14] [%] | cell viability [15] [%] | cell viability [16] [%] | cell viability [17] [%] | cell viability [18] [%] | cell viability [19] [%] | cell viability [20] [%] | cell viability [21] [%] | cell viability [22] [%] | cell viability [23] [%] | cell viability [24] [%] | cell viability [25] [%] | cell viability [26] [%] | cell viability [27] [%] | cell viability [28] [%] | cell viability [29] [%] | cell viability [30] [%] | cell viability [31] [%] | cell viability [32] [%] | cell viability [33] [%]
1 | CCCCN(CCCC)C(=O)CN1C[C@H](c2ccc3c(c2)OCO3)[C@@H](C(=O)O)[C@@H]1c1ccc(OC)cc1 | 98.6 | 107 | 114 | 98.2 | 103 | 105 | 106 | 92.5 | 28.4 | 55.3 | 63.4 | 112 | 112 | 125 | 84.8 | 116 | 127 | 109 | 106 | 74.8 | 75.8 | 67 | – | – | – | – | – | – | – | – | – | – | –
2 | Cc1cc(O)c2c(c1)C(=O)c1cc(O)cc(O)c1C2=O | 102 | 108 | 110 | 115 | 100 | 108 | 98.9 | 99.4 | 106 | 99.4 | 86.7 | 92.7 | 106 | 114 | 117 | 112 | 106 | 106 | 106 | 123 | 103 | 103 | 101 | 99.3 | 101 | 101 | 120 | 128 | 111 | 102 | 112 | 120 | 86.5
3 | Cc1cn(CCN2CCN(c3ccccc3-c3cc(C#N)cc(C(=O)NCCCN4CCCC4)c3)CC2)c2ccccc12 | 103 | 103 | 94.9 | 97.1 | 99.9 | 101 | 112 | 102 | 73.2 | 23.8 | 18.3 | 104 | 116 | 116 | 101 | 117 | 119 | 128 | 113 | 102 | 42 | 27 | – | – | – | – | – | – | – | – | – | – | –
4 | COc1cc2ncnc(Nc3cccc(Br)c3)c2cc1OC | 85.1 | 84.7 | 94.3 | 94.7 | 102 | 98 | 114 | 118 | 114 | 103 | 91.5 | 75 | 75.2 | 86 | 97.4 | 110 | 103 | 120 | 110 | 104 | 96.3 | 78.6 | 113 | 87.9 | 102 | 131 | 122 | 119 | 113 | 136 | 121 | 110 | 89.9
5 | CCN(CC)CCN1C(=O)\C(=N/C2=CC=CC=C12)CC3=CC=C(OC)C=C3 | 68.2 | 67.5 | 87.2 | 76.3 | 85.3 | 80.3 | 99.1 | 83.6 | 75.2 | 86.8 | 85.4 | 78.2 | 89.4 | 87.1 | 89 | 94.3 | 97.1 | 112 | 96.6 | 93.3 | 88 | 102 | 82.7 | 93.1 | 97.8 | 78.5 | 93.8 | 105 | 101 | 106 | 91.9 | 92 | 107
6 | OCCCNc1cc(-c2ccnc(Nc3cccc(Cl)c3)n2)ccn1 | 86.3 | 99.5 | 110 | 108 | 121 | 45.7 | 10.1 | 8.28 | 6.56 | 5.81 | 3.56 | 96.2 | 105 | 114 | 113 | 122 | 62.1 | 10.9 | 5.73 | 6.76 | 5.91 | 3.62 | 103 | 125 | 125 | 123 | 143 | 88.2 | 10.4 | 5.66 | 6.14 | 5.72 | 3.94
7 | O=C(NNC(=O)c1ccc(CN[S+](=O)([O-])c2ccc(F)c(Cl)c2)cc1)c1ccccc1 | 84.6 | 97.1 | 98.2 | 89.9 | 107 | 109 | 109 | 102 | 112 | 106 | 87 | 79.6 | 76.6 | 89.6 | 97.4 | 96 | 91.1 | 93.1 | 96.9 | 87 | 103 | 64.5 | 92.9 | 85.2 | 92.5 | 75 | 91.5 | 98.3 | 102 | 105 | 88.2 | 104 | 106
8 | CC1(C)CC(O)CC(C)(C)N1[O] | 87.2 | 80.3 | 89.8 | 86.9 | 81.6 | 89.1 | 44.7 | 94.3 | 89.5 | 92.1 | 84.2 | 98.6 | 94.6 | 97.8 | 97.5 | 94.3 | 95.4 | 32.7 | 106 | 108 | 102 | 85.4 | 102 | 114 | 96.3 | 105 | 98.6 | 96.6 | 27.7 | 101 | 113 | 103 | 99.5
9 | C[N+](C)([O-])CCNc1ccc(NCC[N+](C)(C)[O-])c2c1C(=O)c1c(O)ccc(O)c1C2=O | 101 | 85.4 | 83.8 | 84.5 | 88.8 | 77.1 | 69.7 | 46.4 | 7.02 | 20.1 | 10.1 | 88.9 | 86.1 | 93.8 | 87.7 | 79.5 | 68.2 | 62 | 33.5 | 8.62 | 18.8 | 12 | 101 | 95.8 | 105 | 89.9 | 73.5 | 56.6 | 55.8 | 28.8 | 7.28 | 12.8 | 9.18
10 | COc1cc(OC)c(NC(=O)Nc2cc(C)on2)cc1Cl | 95.9 | 94.2 | 104 | 98.4 | 94.6 | 99.8 | 97.3 | 112 | 100 | 97.5 | 71.3 | 84.8 | 100 | 90.3 | 94.5 | 105 | 108 | 96.1 | 89.7 | 101 | 91.5 | 71.1 | 74.3 | 79.6 | 90.9 | 89.6 | 82 | 86.5 | 91.3 | 92 | 76.6 | 80.6 | 63.8
11 | CC(NCc1ccc2c(c1)[nH]/c(=N\C(=O)c1ccc(-c3cn[nH]c3)s1)n2CC(C)(C)O)C(C)(C)C (stereo not given) | 112 | 89.6 | 62.7 | 52.4 | 47.7 | 41 | 24.9 | 10.9 | 8.32 | 2.2 | 2.08 | 122 | 85.4 | 79.8 | 42.4 | 45.7 | 41.5 | 27.2 | 16.2 | 6.16 | 1.94 | 1.53 | 96.7 | 112 | 76.3 | 58.5 | 48 | 36.5 | 31.3 | 14.9 | 4.21 | 1.66 | 1.98
12 | C#Cc1cccc(Nc2ncnc3cc(OC)c(OCCCCCCC(=O)NO)cc23)c1 | 118 | 119 | 104 | 110 | 95.9 | 73.4 | 44 | 15.1 | 6.25 | 5.23 | 3.28 | 119 | 123 | 108 | 120 | 117 | 59.2 | 28.8 | 9.73 | 6.06 | 5.12 | 2.79 | 88.3 | 91.8 | 75.6 | 81.3 | 69.8 | 46.3 | 26.5 | 6.61 | 4.45 | 3.81 | 1.74
13 | CC(C)(C)NC(=O)[C@@H]1CN(Cc2cccnc2)CCN1C[C@@H](O)C[C@@H](Cc1ccccc1)C(=O)N[C@H]1c2ccccc2C[C@H]1O.O=S(=O)(O)O | 73.5 | 89.2 | 93.5 | 100 | 94.1 | 96.5 | 104 | 90.9 | 93.3 | 90.3 | 78.7 | 102 | 102 | 109 | 119 | 94.9 | 118 | 122 | 112 | 96.9 | 90.4 | 62.8 | 109 | 99.5 | 104 | 114 | 107 | 108 | 112 | 122 | 95.6 | 92.1 | 54.5
14 | O=C1CCc2ccc(OCCCCN3CCN(c4cccc(Cl)c4Cl)CC3)cc2N1 | 111 | 121 | 111 | 41 | 113 | 112 | 101 | 89.2 | 129 | 119 | 113 | 120 | 108 | 113 | 34.9 | 105 | 112 | 120 | 106 | 105 | 117 | 74.7 | 104 | 111 | 105 | 24.5 | 96.4 | 101 | 98.5 | 23.1 | 107 | 95.7 | 73.1
15 | N#CC(=C(/N)Sc1ccccc1N)/C(C#N)=C(\N)Sc1ccccc1N | 95.9 | 101 | 129 | 133 | 116 | 123 | 111 | 113 | 94.1 | 100 | 83 | 116 | 120 | 139 | 151 | 113 | 118 | 111 | 98.2 | 93.2 | 89 | 57.3 | – | – | – | – | – | – | – | – | – | – | –
16 | O=C1N\2CCC3=C([NH]C4=C3C=CC=C4)C2=N/C5=CC=CC=C15 | 96 | 102 | 114 | 118 | 92.8 | 123 | 123 | 115 | 110 | 90.8 | 76.8 | 123 | 112 | 142 | 135 | 121 | 153 | 147 | 135 | 151 | 101 | 53.6 | 124 | 113 | 137 | 134 | 109 | 126 | 122 | 147 | 144 | 95 | 83.7
